How the values were obtained:
PGC-1 promoter = test: Transient assay of HepG2 cells with PGC-1 luciferase reporter; type: cell-based, human
Description: (§1) Plasmids. Expression plasmids pZEO-ACREB^22 and pcDNA3-PGC-1^24 have been described previously. Liver specific A-CREB transgene was constructed by inserting A-CREB cDNA into a liver specific albumin promoter/enhancer plasmid^5. To construct luciferase expression plasmids −490PEPCKLuc and −355PEPCKLuc BamHI/BglII fragments of the PEPCK promoter region containing 490 or 355 bp of the mouse PEPCK 5′-flanking region, respectively, were cloned into the pGL3 basic luciferase reporter vector (Promega, St. Luis Obispo). PGC-1 reporter mPGCLuc was constructed by inserting a […] fragment of the mouse PGC-1 promoter containing 170 bp of the 5′-flanking region and 68 bp of Exon 1 into the pGL3 vector.
(§2) Cell culture and transient transfection assays. Human hepatoma HepG2 cells were transfected using the Lipofectamine 2000 reagent (GIBCO BRL) according to manufacturers instructions (500 ng of indicator plasmid/well). Where indicated, expression plasmids encoding A-CREB (pZeo-ACREB)^22 or PGC-1 (pcDNA3-PGC-1)^24 were cotransfected (50 ng or 800 ng plasmid/well, respectively). Cotransfections were performed with a constant DNA amount by adding the empty pcDNA3 vector (Invitrogen). Cells were treated with Forskolin (10 μM) and/or Dexamethasone (100 nM) or insulin (10 nM) for 14 h. […]

PEPCK promoter = test: Transient assay of HepG2 cells with PEPCK luciferase reporter; type: cell-based, human; settings: HepG2, PEPCK reporter plasmid, cAMP agonist
Description: as §1, §2

Molecule | induction of PGC-1 promoter activity (PGC-1 promoter; HepG2, PGC-1 luciferase reporter (-170 to +68), forskolin 10 μM) | stimulation of PEPCK promoter activity (PEPCK promoter) | effect on PGC-1 reporter activity (PGC-1 promoter; HepG2, insulin 10 nM)
C=C[C@@]1(C)CC(=O)[C@]2(O)[C@@]3(C)[C@@H](O)CCC(C)(C)[C@@H]3[C@H](O)[C@H](OC(C)=O)[C@@]2(C)O1 [cAMP agonist, Forskolin] | 3–4 fold | 3–4 fold | 
insulin |  |  | blocked
